# Reference: patent publication US20250195463A1, “ORGANOMETALLIC COMPLEX, CONTROLLED-RELEASE MULTI-FUNCTIONAL DRUG, PHARMACEUTICAL COMPOSITION, PROCESSES FOR THE PREPARATION THEREOF AND THEIR USE” (FACULDADE DE CIÊNCIAS DA UNIVERSIDADE DE LISBOA, priority 2022, published 2025)
# Like-named read-outs stand apart in the source and are kept apart here.
# Key:
# [1] = Stability in organic medium (dimethyl sulfoxide) by UV-Vis spectroscopy; format: physicochemical; settings: for Relative variation of the maximum absorbance of the π→π* transitions: band 289-300 nm (λmax in column head); for Relative variation of the maximum absorbance of the charge transfer bands: band 357-425 nm (λmax in column head)
# In short: (§1)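 UV-Vis spectra (270-900 nm) were recorded at intervals from 0 to 24 h, at room temperature in the dark. Solvents were 100% DMSO, or 5% or 10% DMSO in DMEM depending on complex, at 7.0×10^-5 M to 3.0×10^-4 M.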
# [2] = Stability in aqueous medium (dimethyl sulfoxide/Dulbecco's Modified Eagle Medium) by UV-Vis spectroscopy; format: physicochemical; settings: 5% dimethyl sulfoxide/95% Dulbecco's Modified Eagle Medium; for Relative variation of the maximum absorbance of the π→π* transitions: band 292-296 nm (λmax in column head); for Relative variation of the maximum absorbance of the charge transfer bands: band 358-400 nm (λmax in column head)
# In short: as §1
# [3] = tested on: MCF-7 (FGFR−); assay: MTT cytotoxicity assay; settings: read-out: Cytotoxic activity expressed as IC50; Table 6; MCF-7 (FGFR−); 48 h, 37° C.
# In short: (§2)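 Cells were exposed continuously for 48 h at 37 °C to compounds at 0.1 to 100 μM. In pH-controlled runs, RuPC1 stock was pre-incubated 48 h at pH 6.8 or 7.4, then tested at 0.1 to 50 μM. Viability was read by MTT (0.5 mg/mL, 3 h) absorbance at 570 nm versus untreated cells, with IC50 fitted.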
# [4] = tested on: MDA-MB-134-VI (FGFR+); assay: MTT cytotoxicity assay; settings: read-out: Cytotoxic activity expressed as IC50; Table 6; MDA-MB-134-VI (FGFR+); 48 h, 37° C.
# In short: as §2
# [5] = tested on: MDA-MB-231 (FGFR−); assay: MTT cytotoxicity assay; settings: for IC50: read-out: Cytotoxic activity expressed as IC50, 48 h, 37° C.
# In short: as §2
# [6] = tested on: SK-BR-3 (FGFR+); assay: MTT cytotoxicity assay; settings: read-out: Cytotoxic activity expressed as IC50; Table 6; SK-BR-3 (FGFR+); 48 h, 37° C.
# In short: as §2
compound,measurement,setting,value
NNC(=O)C1=C[CH]([Ru-]2([PH](c3ccccc3)(c3ccccc3)c3ccccc3)[n+]3ccccc3-c3cccc[n+]32)C=C1.O=S(=O)([O-])C(F)(F)F (centres unmarked) [compound 4],Relative variation of the maximum absorbance of the π→π* transitions,[1]; time 0 h,0.0%
same,Relative variation of the maximum absorbance of the charge transfer bands,[1]; time 0 h,0.0%
same,Relative variation of the maximum absorbance of the π→π* transitions,[1]; time 0.25 h,0.3%
same,Relative variation of the maximum absorbance of the charge transfer bands,[1]; time 0.25 h,0.0%
same,Relative variation of the maximum absorbance of the π→π* transitions,[1]; time 0.5 h,0.3%
same,Relative variation of the maximum absorbance of the charge transfer bands,[1]; time 0.5 h,−0.1%
same,Relative variation of the maximum absorbance of the π→π* transitions,[1]; time 0.75 h,0.3%
same,Relative variation of the maximum absorbance of the charge transfer bands,[1]; time 0.75 h,−0.2%
same,Relative variation of the maximum absorbance of the π→π* transitions,[1]; time 1 h,0.5%
same,Relative variation of the maximum absorbance of the charge transfer bands,[1]; time 1 h,0.1%
same,Relative variation of the maximum absorbance of the π→π* transitions,[1]; time 2 h,0.4%
same,Relative variation of the maximum absorbance of the charge transfer bands,[1]; time 2 h,−0.2%
same,Relative variation of the maximum absorbance of the π→π* transitions,[1]; time 3 h,0.6%
same,Relative variation of the maximum absorbance of the charge transfer bands,[1]; time 3 h,0.2%
same,Relative variation of the maximum absorbance of the π→π* transitions,[1]; time 4 h,0.7%
same,Relative variation of the maximum absorbance of the charge transfer bands,[1]; time 4 h,0.9%
same,Relative variation of the maximum absorbance of the π→π* transitions,[1]; time 5 h,−0.3%
same,Relative variation of the maximum absorbance of the charge transfer bands,[1]; time 5 h,1.0%
same,Relative variation of the maximum absorbance of the π→π* transitions,[1]; time 6 h,−0.2%
same,Relative variation of the maximum absorbance of the charge transfer bands,[1]; time 6 h,0.6%
same,Relative variation of the maximum absorbance of the π→π* transitions,[1]; time 24 h,−0.2%
same,Relative variation of the maximum absorbance of the charge transfer bands,[1]; time 24 h,1.6%
same,Relative variation of the maximum absorbance of the π→π* transitions,[2]; time 0 h,0.0%
same,Relative variation of the maximum absorbance of the charge transfer bands,[2]; time 0 h,0.0%
same,Relative variation of the maximum absorbance of the π→π* transitions,[2]; time 0.25 h,0.1%
same,Relative variation of the maximum absorbance of the charge transfer bands,[2]; time 0.25 h,−0.2%
same,Relative variation of the maximum absorbance of the π→π* transitions,[2]; time 0.5 h,0.1%
same,Relative variation of the maximum absorbance of the charge transfer bands,[2]; time 0.5 h,−0.7%
same,Relative variation of the maximum absorbance of the π→π* transitions,[2]; time 0.75 h,−0.4%
same,Relative variation of the maximum absorbance of the charge transfer bands,[2]; time 0.75 h,−1.3%
same,Relative variation of the maximum absorbance of the π→π* transitions,[2]; time 1 h,−0.3%
same,Relative variation of the maximum absorbance of the charge transfer bands,[2]; time 1 h,−0.9%
same,Relative variation of the maximum absorbance of the π→π* transitions,[2]; time 2 h,−0.6%
same,Relative variation of the maximum absorbance of the charge transfer bands,[2]; time 2 h,−0.7%
same,Relative variation of the maximum absorbance of the π→π* transitions,[2]; time 3 h,−0.9%
same,Relative variation of the maximum absorbance of the charge transfer bands,[2]; time 3 h,−1.4%
same,Relative variation of the maximum absorbance of the π→π* transitions,[2]; time 4 h,−1.2%
same,Relative variation of the maximum absorbance of the charge transfer bands,[2]; time 4 h,−0.7%
same,Relative variation of the maximum absorbance of the π→π* transitions,[2]; time 5 h,−1.5%
same,Relative variation of the maximum absorbance of the charge transfer bands,[2]; time 5 h,−2.1%
same,Relative variation of the maximum absorbance of the π→π* transitions,[2]; time 6 h,−1.7%
same,Relative variation of the maximum absorbance of the charge transfer bands,[2]; time 6 h,−2.3%
same,Relative variation of the maximum absorbance of the π→π* transitions,[2]; time 24 h,0.1%
same,Relative variation of the maximum absorbance of the charge transfer bands,[2]; time 24 h,3.0%
same,IC50,[3],5.8 ± 0.8 µM
same,IC50,[4],7.1 ± 1.3 µM
same,IC50 range in words,"[5]; MDA-MB-231, Example 24",low micromolar range
same,IC50,"[5]; Table 5, MDA-MB-231",7.1 µM
same,IC50,"[5]; Table 6, MDA-MB-231 (FGFR−)",6.1 ± 1.3 µM
same,IC50,[6],7.5 ± 1 µM
